Measurements taken from patent publication US20150274719A1, “AMINO-SUBSTITUTED IMIDAZO[1,2-A]PYRIDINECARBOXAMIDES AND THEIR USE” (BAYER PHARMA AKTIENGESELLSCHAFT, priority 2012, published 2015).
Where a name gives a salt, the structure may show the parent alone.

Target: T1, recombinant guanylate cyclase reporter cell line (Rattus norvegicus, UniProt P19686+P20595)
T1 construct: expressed in transfected cells; host or cells: recombinant reporter cell line
T1 sequence (P19686 1-690): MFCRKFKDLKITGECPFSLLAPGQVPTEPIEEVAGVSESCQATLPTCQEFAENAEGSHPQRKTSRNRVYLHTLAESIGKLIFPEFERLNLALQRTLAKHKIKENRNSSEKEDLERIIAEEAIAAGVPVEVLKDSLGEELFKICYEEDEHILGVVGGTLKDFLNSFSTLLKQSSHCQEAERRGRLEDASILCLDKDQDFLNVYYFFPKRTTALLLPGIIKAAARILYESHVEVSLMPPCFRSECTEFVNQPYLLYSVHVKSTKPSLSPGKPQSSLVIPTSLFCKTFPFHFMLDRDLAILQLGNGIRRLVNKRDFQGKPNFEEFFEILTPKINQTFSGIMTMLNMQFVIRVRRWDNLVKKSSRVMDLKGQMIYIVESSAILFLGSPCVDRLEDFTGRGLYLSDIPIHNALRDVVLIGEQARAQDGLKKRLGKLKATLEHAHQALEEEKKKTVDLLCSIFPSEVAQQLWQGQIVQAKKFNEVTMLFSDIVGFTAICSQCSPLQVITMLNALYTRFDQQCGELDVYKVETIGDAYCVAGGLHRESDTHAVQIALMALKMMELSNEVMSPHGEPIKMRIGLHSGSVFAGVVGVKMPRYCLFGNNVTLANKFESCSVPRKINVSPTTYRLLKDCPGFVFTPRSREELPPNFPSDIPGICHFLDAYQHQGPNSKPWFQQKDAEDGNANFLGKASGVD
T1 sequence (P20595 1-619): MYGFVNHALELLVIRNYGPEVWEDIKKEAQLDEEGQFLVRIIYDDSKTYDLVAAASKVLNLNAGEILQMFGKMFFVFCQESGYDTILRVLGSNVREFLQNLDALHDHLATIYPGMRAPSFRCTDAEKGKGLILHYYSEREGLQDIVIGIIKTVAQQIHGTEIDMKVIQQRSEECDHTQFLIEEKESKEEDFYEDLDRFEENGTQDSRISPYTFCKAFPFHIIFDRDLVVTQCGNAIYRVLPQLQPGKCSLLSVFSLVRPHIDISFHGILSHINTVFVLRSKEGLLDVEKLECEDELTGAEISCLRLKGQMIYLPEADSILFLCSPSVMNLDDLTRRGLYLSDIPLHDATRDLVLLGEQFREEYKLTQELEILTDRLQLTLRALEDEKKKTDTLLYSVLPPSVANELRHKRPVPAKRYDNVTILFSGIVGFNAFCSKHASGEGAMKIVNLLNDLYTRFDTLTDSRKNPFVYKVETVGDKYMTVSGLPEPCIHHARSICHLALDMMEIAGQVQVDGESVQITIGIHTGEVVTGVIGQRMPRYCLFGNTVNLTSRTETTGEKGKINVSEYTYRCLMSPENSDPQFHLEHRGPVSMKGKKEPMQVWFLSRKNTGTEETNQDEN
Assay: Action on recombinant guanylate cyclase reporter cell line
Type: cell-based
Details: in some cases mean values from individual determinations
Outline: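 Reported value is the minimal effective concentration (MEC), in some cases a mean of single runs, taken from a recombinant rat guanylate cyclase reporter cell line.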

SMILES | MEC (minimal effective concentration) [µM]
Cc1nc2c(OCc3c(F)cccc3F)cc(Cl)cn2c1C(=O)NCC(C)(N)C(F)(F)F (single isomer, unassigned) [Example 238, ent-N-(2-Amino-3,3,3-trifluoro-2-methylpropyl)-6-chloro-8-[(2,6-difluorobenzyl)oxy]-2-methyl-imidazo[1,2-a]pyridine-3-carboxamide] | 1.00
COCC(N)CNC(=O)c1c(C)nc2c(OCc3c(F)cccc3F)cc(C)cn12 (single isomer, unassigned) [Example 242, ent-N-(2-Amino-3-methoxypropyl)-8-[(2,6-difluorobenzyl)oxy]-2,6-dimethylimidazo[1,2-a]-pyridine-3-carboxamide] | 0.30
COCC(N)CNC(=O)c1c(C)nc2c(OCc3c(F)cccc3F)cc(C)cn12 (single isomer, unassigned) [Example 243, ent-N-(2-Amino-3-methoxypropyl)-8-[(2,6-difluorobenzyl)oxy]-2,6-dimethylimidazo[1,2-a]-pyridine-3-carboxamide] | 1.00
Cc1cc(OCc2c(F)cccc2F)c2nc(C)c(C(=O)NC3CCC(N)C3)n2c1 (single isomer, unassigned) [Example 309, ent-N-(3-aminocyclopentyl)-8-[(2,6-difluorobenzyl)oxy]-2,6-dimethylimidazo[1,2-a]pyridine-3-carboxamide] | 0.30
Cc1nc2c(OCc3c(F)cccc3F)cccn2c1C(=O)NC(CN)CC(C(F)(F)F)C(F)(F)F (single isomer, unassigned; enantiomer a) [Example 7, ent-N-[1-Amino-5,5,5-trifluoro-4-(trifluoromethyl)pentan-2-yl]-8-[(2,6-difluorobenzyl)oxy]-2-methylimidazo[1,2-a]pyridine-3-carboxamide (Enantiomer A)] | 1.00
Cc1nc2c(OCc3c(F)cccc3F)cccn2c1C(=O)NC(CN)c1ccc(F)c(F)c1 (single isomer, unassigned; enantiomer a) [Example 12, ent-N-[2-Amino-1-(3,4-difluorophenyl)ethyl]-8-[(2,6-difluorobenzyl)oxy]-2-methylimidazo[1,2-a]-pyridine-3-carboxamide (Enantiomer A)] | 1.00
COCC(N)CNC(=O)c1c(C)nc2c(OCc3c(F)cccc3F)cccn12 (single isomer, unassigned; enantiomer a) [Example 247, ent-N-(2-Amino-3-methoxypropyl)-8-[(2,6-difluorobenzyl)oxy]-2-methylimidazo[1,2-a]pyridine-3-carboxamide (Enantiomer A)] | 3.00
Cc1nc2c(OCc3c(F)cccc3F)cccn2c1C(=O)NCC(C)(N)CCOCc1ccccc1 (single isomer, unassigned; enantiomer a) [Example 266, ent-N-[2-Amino-4-(benzyloxy)-2-methylbutyl]-8-[(2,6-difluorobenzyl)oxy]-2-methylimidazo[1,2-a]pyridine-3-carboxamide (Enantiomer A)] | 0.03
CCC(C)(N)CNC(=O)c1c(C)nc2c(OCc3c(F)cccc3F)cc(C(F)F)cn12 (single isomer, unassigned; enantiomer a) [Example 288, ent-N-(2-amino-2-methylbutyl)-8-[(2,6-difluorobenzyl)oxy]-6-(difluoromethyl)-2-methylimidazo[1,2-a]pyridine-3-carboxamide (Enantiomer A)] | 0.3
CCC(C)(N)CNC(=O)c1c(C)nc2c(OCc3c(F)ccc(F)c3F)cc(C)cn12 (single isomer, unassigned; enantiomer a) [Example 300, ent-N-(2-amino-2-methylbutyl)-2,6-dimethyl-8-[(2,3,6-trifluorobenzyl)oxy]imidazo[1,2-a]pyridine-3-carboxamide (Enantiomer A) hydrochloride] | 0.10

Further lines, results first:

MEC (minimal effective concentration) [µM] | SMILES
0.30 | Cc1cc(OCc2c(F)cccc2F)c2nc(C)c(C(=O)NCC(C)(N)C(F)(F)F)n2c1 (single isomer, unassigned) [Example 240, ent-N-(2-Amino-3,3,3-trifluoro-2-methylpropyl)-8-[(2,6-difluorobenzyl)oxy]-2,6-dimethylimidazo-[1,2-a]pyridine-3-carboxamide]
0.30 | Cc1cc(OCc2c(F)cccc2F)c2nc(C)c(C(=O)NCC(C)(N)C(F)(F)F)n2c1 (single isomer, unassigned) [Example 241, ent-N-(2-Amino-3,3,3-trifluoro-2-methylpropyl)-8-[(2,6-difluorobenzyl)oxy]-2,6-dimethylimidazo-[1,2-a]pyridine-3-carboxamide]
0.10 | CCCC(C)(N)CNC(=O)c1c(C)nc2c(OCc3c(F)cccc3F)cc(Cl)cn12 (single isomer, unassigned; enantiomer a) [Example 245, ent-N-(2-Amino-2-methylpentyl)-6-chloro-8-[(2,6-difluorobenzyl)oxy]-2-methylimidazo[1,2-a]-pyridine-3-carboxamide (Enantiomer A)]
0.10 | Cc1cc(OCc2c(F)cccc2F)c2nc(C)c(C(=O)NCC(C)(N)C3CC3)n2c1 (single isomer, unassigned; enantiomer a) [Example 260, ent-N-(2-Amino-2-cyclopropylpropyl)-8-[(2,6-difluorobenzyl)oxy]-2,6-dimethylimidazo[1,2-a]-pyridine-3-carboxamide (Enantiomer A)]
0.55 | Cc1cc(OCc2c(F)cccc2F)c2nc(C)c(C(=O)NCC(C)(N)CO)n2c1 (single isomer, unassigned; enantiomer a) [Example 268, ent-N-(2-Amino-3-hydroxy-2-methylpropyl)-8-[(2,6-difluorobenzyl)oxy]-2,6-dimethylimidazo-[1,2-a]pyridine-3-carboxamide (Enantiomer A)]
0.30 | Cc1cc(OCc2c(F)cccc2F)c2nc(C)c(C(=O)NCC(C)(N)CCO)n2c1 (single isomer, unassigned; enantiomer a) [Example 271, ent-N-(2-Amino-4-hydroxy-2-methylbutyl)-8-[(2,6-difluorobenzyl)oxy]-2,6-dimethylimidazo[1,2-a]pyridine-3-carboxamide (Enantiomer A)]
5.5 | Cc1nc2c(OCc3c(F)cccc3F)cccn2c1C(=O)NCC(C)(N)CCO (single isomer, unassigned; enantiomer a) [Example 272, ent-N-(2-Amino-4-hydroxy-2-methylbutyl)-8-[(2,6-difluorobenzyl)oxy]-2-methylimidazo[1,2-a]-pyridine-3-carboxamide (Enantiomer A)]
0.10 | Cc1cc(OCc2c(F)cccc2F)c2nc(C)c(C(=O)NCC(C)(N)Cc3ccccn3)n2c1 (single isomer, unassigned; enantiomer a) [Example 298, ent-N-[2-amino-2-methyl-3-(pyridin-2-yl)propyl]-8-[(2,6-difluorobenzyl)oxy]-2,6-dimethyl-imidazo[1,2-a]pyridine-3-carboxamide (Enantiomer A)]
